Measured values from patent US11857555B2, “Aqueous pharmaceutical formulation of hydrocortisone sodium phosphate and monothioglycerol” (ANTARES PHARMA, INC., priority 2020, dated 2024).

How the values were obtained:
[1] = Forced degradation of HCP API under stress conditions (0.1 N HCl, 0.1 N NaOH, dry heat); type: physicochemical; details: 3 different stress conditions: 0.1 N HCl, qualitative
Method: To develop this method, Hydrocortisone sodium phosphate API was kept under stress conditions. These stress conditions included treatment with 0.1 N HCl, 0.1 N NaOH and dry heat. This was performed to investigate the nature of API and its compatibility with the stress conditions. It also helped generate degradation products to assess the specificity of the HPLC method under development. Information on degradation products and the conditions used to generate them was used to optimize the method for better resolution of such degradation products on chromatogram. FIGS. 3A-3C show chromatograms of HCP under stress conditions.
The proportions in which the degradants formed depended on the stress condition. Stress studies performed on the API were done for qualitative purpose only.

[2] = light, strong acids and alkalies; cited from earlier work

SMILES	forced degradation outcome (in words) [1]	stability (in words) [2]
C[C@]12CCC(=O)C=C1CC[C@@H]1[C@@H]2[C@@H](O)C[C@@]2(C)[C@H]1CC[C@]2(O)C(=O)COP(=O)([O-])[O-].[Na+].[Na+] [HCP, Hydrocortisone sodium phosphate]	formation of Hydrocortisone, other common degradants	–
C[C@]12CCC(=O)C=C1CC[C@@H]1[C@@H]2[C@@H](O)C[C@@]2(C)[C@H]1CC[C@]2(O)C(=O)CO [Hydrocortisone]	–	sensitive to light and unstable in strong acids and alkalies
